Laboratory results: patent publication US20220062240A1, “METHODS OF TREATING CANCER USING A CLK INHIBITOR” (BioSplice Therapeutics, Inc., priority 2018, published 2022)
Like-named read-outs stand apart in the source and are kept apart here. Blank lines part the entries; values can stand above or below the molecule they belong to.

Columns and labels:
[1] = test system: pancreatic cancer (8 cell lines); assay: CellTiter-Glo Viability Assay, pancreatic cancer; type: cell-based; conditions: Homo sapiens, inhibition of cancer cell proliferation
[2] = test system: liver cancer (3 cell lines); assay: CellTiter-Glo Viability Assay, liver cancer; type: cell-based; conditions: Homo sapiens, inhibition of cancer cell proliferation
[3] = test system: MCF7; assay: CellTiter-Glo Viability Assay, breast cancer; type: cell-based; conditions: Homo sapiens, 96 h; MCF7, breast cancer, four days; read-out: EC50
[4] = test system: ZR-75-1; assay: CellTiter-Glo Viability Assay, breast cancer; type: cell-based; conditions: Homo sapiens, 96 h; ZR-75-1, breast cancer, four days; read-out: EC50
[5] = test system: BT-549; assay: CellTiter-Glo Viability Assay, breast cancer; type: cell-based; conditions: Homo sapiens, 96 h; BT-549, breast cancer, four days; read-out: EC50
[6] = test system: T47D; assay: CellTiter-Glo Viability Assay, breast cancer; type: cell-based; conditions: Homo sapiens, 96 h, breast cancer, four days, read-out: EC50
[7] = test system: HCC1599; assay: CellTiter-Glo Viability Assay, breast cancer; type: cell-based; conditions: Homo sapiens, 96 h; HCC1599, breast cancer, four days; read-out: EC50
[8] = test system: CAMA1; assay: CellTiter-Glo Viability Assay, breast cancer; type: cell-based; conditions: Homo sapiens, CAMA-1, 96 h; CAMA1, breast cancer, four days; read-out: EC50
[9] = test system: DU4475; assay: CellTiter-Glo Viability Assay, breast cancer; type: cell-based; conditions: Homo sapiens, DU-4475, 96 h; DU4475, breast cancer, four days; read-out: EC50
[10] = test system: MDA-MB-231-Luc; assay: CellTiter-Glo Viability Assay, breast cancer; type: cell-based; conditions: Homo sapiens, 96 h; MDA-MB-231-Luc, breast cancer, four days; read-out: EC50
[11] = test system: prostate cancer (5 cell lines); assay: CellTiter-Glo Viability Assay, prostate cancer; type: cell-based; conditions: Homo sapiens
[12] = test system: ovarian cancer (4 cell lines); assay: CellTiter-Glo Viability Assay, ovarian cancer; type: cell-based; conditions: Homo sapiens, inhibition of cancer cell proliferation
[13] = biological target: CLK3 (Homo sapiens, UniProt P49761); assay: CLK3 kinase activity assay (Z-lyte, Ser/Thr 18 peptide)
Chain of CLK3 (P49761 whole entry): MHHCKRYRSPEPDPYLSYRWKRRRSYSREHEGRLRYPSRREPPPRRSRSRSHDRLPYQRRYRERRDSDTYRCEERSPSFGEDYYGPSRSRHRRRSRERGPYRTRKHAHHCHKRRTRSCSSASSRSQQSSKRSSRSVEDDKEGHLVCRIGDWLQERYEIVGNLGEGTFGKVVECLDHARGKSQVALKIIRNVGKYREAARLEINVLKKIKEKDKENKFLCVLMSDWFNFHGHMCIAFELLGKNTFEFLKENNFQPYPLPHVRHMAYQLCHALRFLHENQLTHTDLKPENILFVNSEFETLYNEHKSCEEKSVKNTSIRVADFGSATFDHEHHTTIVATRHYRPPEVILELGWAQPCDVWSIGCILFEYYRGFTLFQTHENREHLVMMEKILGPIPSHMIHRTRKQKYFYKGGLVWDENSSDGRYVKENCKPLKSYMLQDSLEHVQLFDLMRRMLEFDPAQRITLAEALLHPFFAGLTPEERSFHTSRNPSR

[14] = biological target: T1, CLK2 (Homo sapiens, UniProt P49760); assay: CLK2 kinase activity assay (Z-lyte, Ser/Thr 6 peptide); type: biochemical; conditions: recombinant CLK2 kinase, ATP 60 μM; read-out: EC50
T1 construct: purchased Thermo Fisher (Life Technologies), Z'-LYTE Kinase Assay Kits
T1 sequence (P49760 whole entry): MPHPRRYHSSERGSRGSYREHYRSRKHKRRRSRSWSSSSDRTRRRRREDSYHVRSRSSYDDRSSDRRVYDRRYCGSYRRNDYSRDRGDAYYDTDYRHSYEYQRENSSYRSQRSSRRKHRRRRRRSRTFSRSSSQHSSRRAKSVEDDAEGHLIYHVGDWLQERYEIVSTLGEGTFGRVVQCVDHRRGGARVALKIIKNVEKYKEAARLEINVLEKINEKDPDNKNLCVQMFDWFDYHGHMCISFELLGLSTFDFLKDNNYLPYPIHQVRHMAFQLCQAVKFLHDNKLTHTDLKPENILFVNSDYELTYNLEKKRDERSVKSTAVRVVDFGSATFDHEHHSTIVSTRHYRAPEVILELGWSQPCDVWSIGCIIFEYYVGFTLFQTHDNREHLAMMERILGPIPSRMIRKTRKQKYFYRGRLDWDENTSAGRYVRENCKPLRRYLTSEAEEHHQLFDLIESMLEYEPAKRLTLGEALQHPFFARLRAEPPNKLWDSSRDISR
Method: All reactions were performed in duplicate.

[15] = test system: lung cancer (4 cell lines); assay: CellTiter-Glo Viability Assay, lung cancer; type: cell-based; conditions: Homo sapiens, inhibition of cancer cell proliferation
[16] = test system: haematopoietic & lymphoid tumors (13 cell lines); assay: CellTiter-Glo Viability Assay, haematopoietic & lymphoid tumors; type: cell-based; conditions: Homo sapiens, inhibition of cancer cell proliferation
[17] = test system: colorectal cancer (6 cell lines); assay: CellTiter-Glo Viability Assay, colorectal cancer; type: cell-based; conditions: Homo sapiens, inhibition of cancer cell proliferation
[18] = test system: all 50 cell lines; assay: CellTiter-Glo Viability Assay, average across all cell lines; type: cell-based; conditions: Homo sapiens; across all 50 cell lines; read-out: average EC50 for inhibition of cancer cell proliferation
How it was run: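 Luminescent ATP read-out (CellTiter-Glo) after a 4-day compound exposure at 37° C served as the viability measure. Cells were seeded at 300-3,000/well, compound wells run in duplicate against DMSO controls, and EC50 values came from fitted dose-response curves.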

[19] = BXPC-3, BxPC3 cell line, read-out: Pancreatic cancer, EC50 BxPC3
[20] = CAPAN-1, Capan1 cell line, read-out: Pancreatic cancer, EC50 Capan1
[21] = Capan-2, Capan2 cell line, read-out: Pancreatic cancer, EC50 Capan2
[22] = MIA PaCa-2 cell line, read-out: Pancreatic cancer, EC50 MIA PaCa-2
[23] = PANC 05.04 cell line, read-out: Pancreatic cancer, EC50 PANC 05.04
[24] = PANC-1 cell line, read-out: Pancreatic cancer, EC50 PANC-1
[25] = UPAFII cell line, read-out: Pancreatic cancer, EC50 UPAFII
[26] = SNU-398, SNU398 cell line, read-out: Liver cancer, EC50 SNU398
[27] = HEPG2 cell line, read-out: Liver cancer, EC50 HEPG2
[28] = PLC/PRF/5 cell line, read-out: Liver cancer, EC50 PLC/PRF/5
[29] = DU-145, read-out: Prostate cancer EC50 Du-145
[30] = PC-3, PC3 cell line, inhibition of cancer cell proliferation, read-out: Prostate cancer EC50 PC3
[31] = 22Rv1 cell line, inhibition of cancer cell proliferation, read-out: Prostate cancer EC50 22Rv1
[32] = LNCap clone FGC cell line, inhibition of cancer cell proliferation, read-out: Prostate cancer EC50 LNCap clone FGC
[33] = VCaP (Sigma) cell line, inhibition of cancer cell proliferation, read-out: Prostate cancer EC50 VCaP (Sigma)
[34] = PA-1, PA1 cell line, read-out: Ovarian cancer, EC50 (μM) PA1
[35] = TOV112D, TOV-112D cell line, read-out: Ovarian cancer, EC50 (μM) TOV-112D
[36] = OV-90 cell line, read-out: Ovarian cancer, EC50 (μM) OV-90
[37] = OVCAR-3 cell line, read-out: Ovarian cancer, EC50 (μM) OVCAR-3
[38] = A-427, A427 cell line, read-out: Lung cancer, EC50 (μM) A427
[39] = HCC78, HCC-78 cell line, read-out: Lung cancer, EC50 (μM) HCC-78
[40] = NCI-H460 cell line, read-out: Lung cancer, EC50 (μM) NCI-H460
[41] = NCI-H522 cell line, read-out: Lung cancer, EC50 (μM) NCI-H522
[42] = DND41, DND-41 cell line, read-out: Haematopoietic & Lymphoid tumors, EC50 (μM) DND-41
[43] = MV4-11, MV-4-11 cell line, read-out: Haematopoietic & Lymphoid tumors, EC50 (μM) MV-4-11
[44] = Rec1, REC-1 cell line, read-out: Haematopoietic & Lymphoid tumors, EC50 (μM) REC-1
[45] = SU-DHL-4, SUDHL4 cell line, read-out: Haematopoietic & Lymphoid tumors, EC50 (μM) SUDHL4
[46] = HL-60 cell line, read-out: Haematopoietic & Lymphoid tumors, EC50 (μM) HL-60
[47] = JM1 cell line, read-out: Haematopoietic & Lymphoid tumors, EC50 (μM) JM1
[48] = JURKAT, Clone E6-1 cell line, read-out: Haematopoietic & Lymphoid tumors, EC50 (μM) JURKAT, Clone E6-1
[49] = JeKo-1 cell line, read-out: Haematopoietic & Lymphoid tumors, EC50 (μM) JeKo-1
[50] = KASUMI-1 cell line, read-out: Haematopoietic & Lymphoid tumors, EC50 (μM) KASUMI-1
[51] = Loucy cell line, read-out: Haematopoietic & Lymphoid tumors, EC50 (μM) Loucy
[52] = MOLT-4 cell line, read-out: Haematopoietic & Lymphoid tumors, EC50 (μM) MOLT-4
[53] = TF-1 cell line, read-out: Haematopoietic & Lymphoid tumors, EC50 (μM) TF-1
[54] = TOLEDO cell line, read-out: Haematopoietic & Lymphoid tumors, EC50 (μM) TOLEDO
[55] = HCT-116, HCT116 cell line, read-out: Colorectal cancer, EC50 (μM) HCT116
[56] = HT-29, HT29 cell line, read-out: Colorectal cancer, EC50 (μM) HT29
[57] = SW-620, SW620 cell line, read-out: Colorectal cancer, EC50 (μM) SW620
[58] = DLD-1 cell line, read-out: Colorectal cancer, EC50 (μM) DLD-1
[59] = SW48 cell line, read-out: Colorectal cancer, EC50 (μM) SW48
[60] = SW480 cell line, read-out: Colorectal cancer, EC50 (μM) SW480

EC50 [1, 19]: 9580 nM
EC50 [1, 20]: 3720 nM
EC50 [1, 21]: 7500 nM
EC50 [1, 22]: 1110 nM
EC50 [1, 23]: 5110 nM
EC50 [1, 24]: 8910 nM
EC50 [1, 25]: 3510 nM
EC50 [2, 26]: 631 nM
EC50 [2, 27]: 3680 nM
EC50 [2, 28]: > 10000 nM
EC50 [3]: 6640 nM
EC50 [4]: 4030 nM
EC50 [5]: 4500 nM
EC50 [6]: 4620 nM
EC50 [7]: 2190 nM
EC50 [8]: 3090 nM
EC50 [9]: 3220 nM
EC50 [10]: 4060 nM
EC50 [11, 29]: 5780 nM
EC50 [11, 30]: 3980 nM
EC50 [11, 31]: 2850 nM
EC50 [11, 32]: 9120 nM
EC50 [11, 33]: 6020 nM
EC50 [12, 34]: 3.18 µM
EC50 [12, 35]: 1.97 µM
EC50 [12, 36]: 5.6 µM
EC50 [12, 37]: 1.41 µM
EC50 [13]: 38.6 nM
EC50 [14]: 8.9 nM
EC50 [15, 38]: 2.81 µM
EC50 [15, 39]: 5.46 µM
EC50 [15, 40]: > 10 µM
EC50 [15, 41]: 1.59 µM
EC50 [16, 42]: 2.11 µM
EC50 [16, 43]: 0.879 µM
EC50 [16, 44]: 2.45 µM
EC50 [16, 45]: 2.27 µM
EC50 [16, 46]: 3.25 µM
EC50 [16, 47]: 1.19 µM
EC50 [16, 48]: 4.05 µM
EC50 [16, 49]: 0.731 µM
EC50 [16, 50]: 3.05 µM
EC50 [16, 51]: 1.6 µM
EC50 [16, 52]: 3.61 µM
EC50 [16, 53]: > 10 µM
EC50 [16, 54]: 2.8 µM
EC50 [17, 55]: 2.06 µM
EC50 [17, 56]: 6.22 µM
EC50 [17, 57]: 1.4 µM
EC50 [17, 58]: 7.22 µM
EC50 [17, 59]: 0.926 µM
EC50 [17, 60]: 1.51 µM
SMILES: CN(C)C1CCN(c2cc(C(=O)Nc3ncc4ccc(-c5cn(C)nn5)cc4n3)ccn2)CC1 [Compound 80]
EC50 [18]: 4070 nM

EC50 [1, 19]: 3410 nM
EC50 [1, 20]: 3510 nM
EC50 [1, 21]: 2210 nM
EC50 [1, 22]: 381 nM
EC50 [1, 23]: 2920 nM
EC50 [1, 24]: > 10000 nM
EC50 [1, 25]: 1720 nM
EC50 [2, 26]: 91 nM
EC50 [2, 27]: 1460 nM
EC50 [2, 28]: 3540 nM
EC50 [3]: 3520 nM
EC50 [4]: 1110 nM
EC50 [5]: 1530 nM
EC50 [6]: 1740 nM
EC50 [7]: 828 nM
EC50 [8]: 919 nM
EC50 [9]: 750 nM
EC50 [10]: 1200 nM
EC50 [11, 29]: 955 nM
EC50 [11, 30]: 759 nM
EC50 [11, 31]: 833 nM
EC50 [11, 32]: 1640 nM
EC50 [11, 33]: 1790 nM
EC50 [12, 34]: 1.09 µM
EC50 [12, 35]: 0.419 µM
EC50 [12, 36]: 1.34 µM
EC50 [12, 37]: 0.67 µM
EC50 [13]: 35.1 nM
EC50 [14]: 3.8 nM
EC50 [15, 38]: 0.489 µM
EC50 [15, 39]: 0.92 µM
EC50 [15, 40]: 9.68 µM
EC50 [15, 41]: 0.31 µM
EC50 [16, 42]: 0.258 µM
EC50 [16, 43]: 0.122 µM
EC50 [16, 44]: 3.62 µM
EC50 [16, 45]: 0.419 µM
EC50 [16, 46]: 0.767 µM
EC50 [16, 47]: 0.256 µM
EC50 [16, 48]: 1.07 µM
EC50 [16, 49]: 0.159 µM
EC50 [16, 50]: 1.27 µM
EC50 [16, 51]: 0.174 µM
EC50 [16, 52]: 1.29 µM
EC50 [16, 53]: 2.73 µM
EC50 [16, 54]: 0.441 µM
EC50 [17, 55]: 0.522 µM
EC50 [17, 56]: 2.8 µM
EC50 [17, 57]: 0.239 µM
EC50 [17, 58]: 1.17 µM
EC50 [17, 59]: 0.312 µM
EC50 [17, 60]: 0.274 µM
SMILES: CC(C)CC(=O)Nc1cncc(-c2ccc3[nH]nc(-c4cc5c(N6CCCCC6)cncc5[nH]4)c3c2)c1 [Compound 50]
EC50 [18]: 1590 nM
